Measured values from US20110313677A1, “METHOD FOR DETERMINING THE LIVER PERFORMANCE OF A LIVING ORGANISM BY THE MEANS OF QUANTITATIVE MEASURING THE METABOLIZATION OF SUBSTRATES” (HUMEDICS GMBH, priority 2009, published 2011).

What was measured:
CYP1A2 = biological target: T1, CYP1A2 (Homo sapiens, UniProt P05177); experiment: breath test: 13CO2 increase in exhalation air after intravenous 13C methacetin (DOB slope kinetics, LiMAx); type: in vivo
T1 construct: follow directly and immediately the metabolization of the administered substrate by the enzymes present in the liver; from tissue; host or cells: liver of the living human subject (in vivo)
T1 sequence (P05177 1-516): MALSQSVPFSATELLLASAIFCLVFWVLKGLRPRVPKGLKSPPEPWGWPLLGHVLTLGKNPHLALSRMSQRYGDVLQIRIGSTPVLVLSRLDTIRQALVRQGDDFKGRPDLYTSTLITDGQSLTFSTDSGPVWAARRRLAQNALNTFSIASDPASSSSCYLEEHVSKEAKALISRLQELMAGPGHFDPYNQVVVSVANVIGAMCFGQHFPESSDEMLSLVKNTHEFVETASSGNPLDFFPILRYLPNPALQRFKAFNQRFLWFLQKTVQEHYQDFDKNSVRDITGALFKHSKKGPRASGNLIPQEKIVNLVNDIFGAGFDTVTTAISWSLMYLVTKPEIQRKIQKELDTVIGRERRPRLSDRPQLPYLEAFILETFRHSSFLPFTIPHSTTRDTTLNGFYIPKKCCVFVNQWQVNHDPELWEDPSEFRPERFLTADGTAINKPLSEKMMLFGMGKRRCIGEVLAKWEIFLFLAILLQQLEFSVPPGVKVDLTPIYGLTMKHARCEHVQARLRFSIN
From the text: Thereby, the method according to an aspect of the invention comprises the steps of administering at least one ^13C labelled substrate, which is converted by the liver by releasing at least one ^13C labelled metabolization product, in particular ^13CO2 and the step of determining the amount of the at least one formed ^13C labelled metabolization product, in particular of the ^13CO2 amount, in the exhalation air over a definite time interval by the means of at least one measuring device with at least one evaluation unit. In an embodiment, the amount of the formed ^13C labelled metabolization product, in particular of ^13CO2 in the exhalation air, is proportional to the amount of the at least one administered substrate. The method according to an aspect of the invention is characterized in that it is now possible based on the determined measure points to describe the measured initial increase of the amount of the at least one ^13C labelled metabolization product, in particular of the ^13CO2 amount, in the exhalation air by the means of a differential equation of first order. Based on the solution of this differential equation of first order subsequently a maximum value Amax (also designated as DOBmax, whereby DOB stands for “delta over baseline”) and a time constant tau of the increase of the amount of the ^13C labelled metabolization product, in particular of the ^13CO2 amount, are determined.
wherein (t) stands for the metabolization dynamic of the at least one substrate, t for the measuring time, t0 for the start of the metabolization, tau for the time constant of the conversion and Amax for the maximum amplitude of the fitted function or the maximum concentration of the metabolization product and A0 for the initial concentration of the metabolization product. Therefore, a determination of Amax and the time constant tau is possible based on the above equation.
wherein RPDB corresponds to the value 0,011237 (Pee-Dee-Belemnite-standard of the ^13CO2/^12CO2-ratio), P to the CO2 production rate, M to the molar mass of the administered substance and BW to the body weight of the person.
In an embodiment of the present method the determination of the liver performance of a human occurs according to a scheme as shown in FIG. 2. During this measurement course the metabolization is started by the intravenous administering of the substrate to be metabolized, in particular ^13C methacetin 1 in combination with an isotonic sodium chloride solution 1a.
Beside an enzymatic activation of the substrate in particular by the P450 oxygenases also a release or activation of the substrate by the means of radiation or other fast processes is conceivable. The released metabolization product for instance ^13CO2 is transported via the blood into the lung and is there exhaled. The exhalation air is continuously transported into the measuring device 2, e.g., via a breathing mask and a connecting tube and is analyzed by the means of a computer 3 (Stockmann et al., Annals of Surgery, 2009, 250: col. 119-125). A measuring device suitable for the present method is for instance described in WO 2007/107366 A1.
Due to the specific measuring device being applied it is possible to follow the metabolization of the substrate in each breath in real time. This is emphasized in FIG. 3. […] Thereby 1 DOB indicates a change of the ^13CO2 to ^12CO2 ratio at about thousandth part over the natural ratio. As described before, Amax or DOBmax as well as the time constant tau are deducible from said slope. After the ^13CO2 increase has reached a maximum a decrease of the ^13CO2 concentration occurs what can be attributed to further dynamic processes in the body which contribute to the degradation of the measured signal.
described metabolization dynamics it is possible to follow directly and immediately the metabolization of the administered substrate by the enzymes present in the liver. If methacetin is administered as substrate, it is demethylated by the enzyme CYP1A2. […]

[1] = in vivo
From the text: (§1) Beside or additionally to the determination of the amount of a ^13C labelled metabolization product as for instance ^13CO2 in the exhalation air for estimating the liver performance it is also conceivable to follow the concentration decrease of the dealkylated product in the blood and to deduce from the corresponding slope kinetics a time constant tau.
(§2) The concentration changes of the administered ^13C labelled substrate, for instance ^13C methacetin and of the dealkylation product formed in the liver, for instance Paracetamol, are followed by the means of a suitable analytical method, for instance HPLC. […] The initial concentration changes can also be described here with a differential equation of first order.

[2] = concentration changes of 13C methacetin and its dealkylation product Paracetamol in the blood followed by HPLC; settings: FIG. 8, blood
From the text: as §1, §2

Row | measured maximum value A of the 13CO2 increase in the breathing air (CYP1A2; FIG. 7, curve A, determined data points) | time constant tau for the conversion (CYP1A2; FIG. 7, curve B, fit of the initial 13CO2 increase) [min] | amplitude Amax of the fitted function (CYP1A2; FIG. 7, curve B, fit with solution of a differential equation of first order) | maximum conversion (CYP1A2; after the operation, residual liver volume 625 ml) [µg/h/kg] | maximum conversion LiMAx (CYP1A2; before the liver operation, total liver volume 1450 ml) [µg/h/kg] | maximum conversion LiMAx (CYP1A2; cirrhosis of the liver (FIG. 4b)) [µg/h/kg] | maximum conversion LiMAx (CYP1A2; corresponding to the aspired residual liver volume of 698 ml (rule of three)) [µg/h/kg] | maximum conversion LiMAx (CYP1A2; liver failure (FIG. 4d)) [µg/h/kg] | maximum conversion LiMAx (CYP1A2; normal liver performance (FIG. 4a)) [µg/h/kg] | initial concentration in the blood [1] [µg/mL] | time constant τ1 for the initial fast concentration increase ([2]; Paracetamol formed from 13C methacetin) [min] | time constant τ2 for the subsequent decelerated concentration increase ([2]; further distribution in the blood) [min] | SMILES | maximum conversion LiMAx (CYP1A2; heavy liver damages (FIG. 4c)) [µg/h/kg]
1 | 22,01 DOB | 2.42 | 22,09 DOB | 169 | 307 | 307 | 165 | 55 | 504 | 20 | – | – | CC(=O)Nc1ccc(O[13CH3])cc1 [^13C methacetin, ^13C-methacetin] | 144
2 | – | – | – | – | – | – | – | – | – | – | 1.3 | 16 | CC(=O)Nc1ccc(O)cc1 [Paracetamol] | –
